The source of these data is patent publication US11730743B2, “Protection of cells from degeneration and treatment of geographic atrophy” (University of Kentucky Research Foundation, priority 2012, dated 2023).

One assay has as its system IRAK1/4. The assay can be described thus: Western blot of phosphorylated IRAK1/4 in human RPE cells. In kind it is cell-based. The conditions noted are these: normalized to Vinculin. The method, then:
Protein abundance and activity. Protein abundance was assessed by Western blot analysis using primary antibodies recognizing Caspase-1 (1:500; Invitrogen), pIRAK1 (1:500; Thermo Scientific), pIRAK4 (1:500, Abbomax, Inc), PYCARD (1:200, Santa Cruz Biotechnology), NLRP3 (1:500, Enzo Life Sciences) and Vinculin (1:1,000; Sigma-Aldrich). Caspase-1 activity was visualized using Caspalux1 E1D2 (OncoImmunin) reagent according to the manufacturer's instructions.
Western blotting. Tissues or cells were homogenized in lysis buffer (10 mM Tris base, pH 7.4, 150 mM NaCl, 1 mM EDTA, 1 mM EGTA, 1% Triton X-100, 0.5% NP-40, protease and phosphatase inhibitor cocktail (Roche)). Protein concentrations were determined using a Bradford assay kit (Bio-Rad) with bovine serum albumin as a standard. Proteins (40-100 μg) were run on NuPAGE Bis-Tris gels (Invitrogen) and transferred to Immun-Blot PVDF membranes (Bio-Rad). Cells were scraped in hot Laemmli buffer (62.5 mM Tris base, pH 6.8, 2% SDS, 5% 2-Mercaptoethanol, 10% Glycerol, 0.01% Bromophenol Blue). Samples were boiled and run on 4-20% NuPAGE Tris-Glycine gels (Invitrogen). […] Protein loading was assessed by immunoblotting using an anti-Vinculin antibody (1:1,000; Sigma-Aldrich). […]
Background: Immunoblotting shows a protein as a band on a membrane.

Another assay deals with wild-type mice. The assay can be described thus: Laser-induced choroidal neovascularization. The format is in vivo. Conditions: intravitreous injection.

For “MyD88 inhibitory peptide: peptide inhibitor of MyD88 homodimerization IMG-2005 (IMGENEX)”, in the assay on IRAK1/4, the “Alu RNA-induced phosphorylation of IRAK1/4” value was “reduced”. For the same substance, the laser-induced choroidal neovascularization result in the assay on wild-type mice is given as “reduced”.
